Data published in patent US10570129B2 (Zoetis Services LLC, priority 2015, dated 2020).

Key:
Haemonchus contortus L3 = assay: microbe, parasite or virus in culture; assay type: cell-based; conditions: Haemonchus contortus, 96 h, read-out: HcL3 Minimal Effective Concentration (MEC)
D. immitis microfilariae = assay: Dirofilaria immitis, microfilariae (DiMF) in vitro motility assay; assay type: cell-based; conditions: Dirofilaria immitis, 72 h, read-out: DiMF minimally effective dose (MEC)
[1] = tested on: Trichostrongylus colubriformis; assay: Jird efficacy model; assay type: in vivo; conditions: Trichostrongylus colubriformis, sc, 96 h, read-out: Jird % (percentage efficacy)

SMILES | minimal effective concentration (Haemonchus contortus L3) [µM] | minimal effective concentration (D. immitis microfilariae) [µM] | inhibition in vivo at 10 mg/kg [1] [%]
O=C(NCc1ccnc(F)c1)n1c2c(c3ccc(OC(F)(F)F)cc31)CN(C/C=C/c1ccc(Cl)cc1)CC2 [Example 379, (E)-2-(3-(4-chlorophenyl)allyl)-N-((2-fluoropyridin-4-yl)methyl)-7-(trifluoromethoxy)-1,2,3,4-tetrahydro-5H-pyrido[4,3-b]indole-5-carboxamide] | 1 | 5.7 | 100
O=C(NCc1ccnc(F)c1)n1c2c(c3cc4c(cc31)COC4)CN(C/C=C/c1ccc(Cl)cc1)CC2 [Example 483, (E)-8-(3-(4-chlorophenyl)allyl)-N-((2-fluoropyridin-4-yl)methyl)-1,3,6,7,8,9-hexahydro-5H-furo[3,4-f]pyrido[4,3-b]indole-5-carboxamide] | 0.5 | 3.3 | 100
O=C(NCc1ccnc(F)c1)n1c2c(c3c(Cl)cccc31)CN(C/C=C/c1ccc(Cl)cc1)CC2 [Example 230, (E)-9-chloro-2-(3-(4-chlorophenyl)allyl)-N-((2-fluoropyridin-4-yl)methyl)-1,2,3,4-tetrahydro-5H-pyrido[4,3-b]indole-5-carboxamide] | 1.8 | 10 | 100
N#Cc1ccc2c(c1)c1c(n2C(=O)NCc2ccnc(F)c2)CCN(C/C=C/c2ccc(F)c(Br)c2)C1 [Example 109, (E)-2-(3-(3-bromo-4-fluorophenyl)allyl)-8-cyano-N-((2-fluoropyridin-4-yl)methyl)-1,2,3,4-tetrahydro-5H-pyrido[4,3-b]indole-5-carboxamide] | 1.22 | 18.2 | 99
